Measurements taken from patent publication US12268674B2, “Mi-2β inhibitor as an immunotherapy agent” (BioVentures, LLC, priority 2021, dated 2025).

What was measured:
Assay in all cases: ATPase profile (ATP acyl phosphate probe)
Assay type in all cases: binding
[1] = target: T1, ABCB7 (Homo sapiens, UniProt O75027); details: ABCB7, SEQ ID NO: 4, ATP BS
T1 construct: to get the native cell lysate; host or cells: A375 cell lysate

[2] = target: T2, ABCC1 (Homo sapiens, UniProt P33527)
T2 construct: to get the native cell lysate; host or cells: A375 cell lysate

[3] = target: T3, ABCC4 (Homo sapiens, UniProt O15439)
T3 construct: to get the native cell lysate; host or cells: A375 cell lysate
T3 sequence (O15439 whole entry): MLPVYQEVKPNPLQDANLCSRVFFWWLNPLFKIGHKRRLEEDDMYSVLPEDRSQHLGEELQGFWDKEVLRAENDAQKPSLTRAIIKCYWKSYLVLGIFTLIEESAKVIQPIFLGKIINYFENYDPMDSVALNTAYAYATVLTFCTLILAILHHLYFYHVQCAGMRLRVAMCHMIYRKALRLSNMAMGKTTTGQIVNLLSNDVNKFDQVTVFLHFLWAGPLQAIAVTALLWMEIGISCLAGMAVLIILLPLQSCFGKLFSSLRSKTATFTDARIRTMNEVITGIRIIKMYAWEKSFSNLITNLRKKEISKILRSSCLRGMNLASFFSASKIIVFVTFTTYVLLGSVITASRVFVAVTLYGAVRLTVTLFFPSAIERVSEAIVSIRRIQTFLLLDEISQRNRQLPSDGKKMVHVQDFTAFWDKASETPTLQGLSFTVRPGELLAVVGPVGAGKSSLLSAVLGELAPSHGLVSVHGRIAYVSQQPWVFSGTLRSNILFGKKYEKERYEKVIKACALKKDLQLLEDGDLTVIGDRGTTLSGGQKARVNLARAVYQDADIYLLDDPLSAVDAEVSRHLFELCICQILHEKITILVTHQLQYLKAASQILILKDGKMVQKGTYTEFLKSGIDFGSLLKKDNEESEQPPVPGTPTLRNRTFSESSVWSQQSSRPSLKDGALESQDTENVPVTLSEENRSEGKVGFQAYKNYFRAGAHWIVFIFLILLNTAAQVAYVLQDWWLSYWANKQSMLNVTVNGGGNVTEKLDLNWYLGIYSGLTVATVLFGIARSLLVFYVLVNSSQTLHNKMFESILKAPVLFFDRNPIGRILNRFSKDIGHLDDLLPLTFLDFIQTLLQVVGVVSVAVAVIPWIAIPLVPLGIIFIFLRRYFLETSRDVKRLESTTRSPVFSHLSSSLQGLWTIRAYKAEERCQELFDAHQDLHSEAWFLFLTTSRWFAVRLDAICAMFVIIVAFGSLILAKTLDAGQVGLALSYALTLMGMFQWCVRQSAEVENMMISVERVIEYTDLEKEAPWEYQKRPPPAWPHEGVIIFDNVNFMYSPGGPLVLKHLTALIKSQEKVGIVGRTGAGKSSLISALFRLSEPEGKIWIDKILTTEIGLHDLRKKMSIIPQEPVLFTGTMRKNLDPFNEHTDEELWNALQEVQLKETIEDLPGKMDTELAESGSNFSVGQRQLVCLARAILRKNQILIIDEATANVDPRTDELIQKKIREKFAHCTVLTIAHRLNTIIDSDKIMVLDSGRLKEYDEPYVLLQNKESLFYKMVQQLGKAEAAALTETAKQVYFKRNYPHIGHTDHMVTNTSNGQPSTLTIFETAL

[4] = target: T4, ABCD3 (Homo sapiens, UniProt P28288); details: ABCD3, SEQ ID NO: 13, ATP BS
T4 construct: to get the native cell lysate; host or cells: A375 cell lysate

[5] = target: T5, ACACB (Homo sapiens, UniProt O00763); details: SEQ ID NO: 21, ATP BS
T5 construct: to get the native cell lysate; host or cells: A375 cell lysate

[6] = target: T6, ALDH16A1 (Homo sapiens, UniProt Q8IZ83); details: ALDH16A1, SEQ ID NO: 38, ATP BS
T6 construct: to get the native cell lysate; host or cells: A375 cell lysate

[7] = target: T7, ATG7 (Homo sapiens, UniProt O95352)
T7 construct: to get the native cell lysate; host or cells: A375 cell lysate
T7 sequence (O95352 whole entry): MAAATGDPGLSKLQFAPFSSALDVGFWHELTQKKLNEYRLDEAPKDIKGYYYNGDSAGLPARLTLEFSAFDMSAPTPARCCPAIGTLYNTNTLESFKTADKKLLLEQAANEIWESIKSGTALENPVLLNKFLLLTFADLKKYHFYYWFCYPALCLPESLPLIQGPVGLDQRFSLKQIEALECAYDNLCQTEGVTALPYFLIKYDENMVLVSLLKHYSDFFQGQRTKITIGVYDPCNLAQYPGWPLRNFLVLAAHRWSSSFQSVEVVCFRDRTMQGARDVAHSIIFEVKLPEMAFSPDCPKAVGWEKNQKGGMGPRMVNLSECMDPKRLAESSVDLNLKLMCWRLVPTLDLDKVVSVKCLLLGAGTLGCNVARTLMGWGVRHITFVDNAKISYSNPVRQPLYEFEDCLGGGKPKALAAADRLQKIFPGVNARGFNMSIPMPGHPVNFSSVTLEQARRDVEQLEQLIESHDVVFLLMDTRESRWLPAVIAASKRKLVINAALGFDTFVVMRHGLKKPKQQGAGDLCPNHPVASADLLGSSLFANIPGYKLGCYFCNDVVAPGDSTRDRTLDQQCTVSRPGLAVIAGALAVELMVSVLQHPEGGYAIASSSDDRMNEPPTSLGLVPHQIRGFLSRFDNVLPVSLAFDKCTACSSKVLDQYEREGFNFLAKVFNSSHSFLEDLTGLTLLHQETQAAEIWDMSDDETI

[8] = target: T8, CLPX (Homo sapiens, UniProt O76031); details: SEQ ID NO: 59, ATP BS
T8 construct: endogenous in cells; host or cells: A375 cell lysate

[9] = target: T9, COASY (Homo sapiens, UniProt Q13057)
T9 construct: endogenous in cells; host or cells: A375 cell lysate

[10] = target: T10, DDX21 (Homo sapiens, UniProt Q9NR30); details: DDX21, SEQ ID NO: 67, ATP BS
T10 construct: endogenous in cells; host or cells: A375 cell lysate

[11] = target: T11, DDX39 (Homo sapiens, UniProt O00148); details: DDX39, SEQ ID NO: 69, ATP BS
T11 construct: endogenous in cells; host or cells: A375 cell lysate

[12] = system: HSP90AA, HSP90AA2, HSP90AB1; details: HSP90AA2, HSP90AB1, SEQ ID NO: 96, ATP BS
[13] = target: T12, MCCC1 (Homo sapiens, UniProt Q96RQ3)
T12 construct: to get the native cell lysate; endogenous in cells; host or cells: A375
T12 sequence (Q96RQ3 48-725 limits assumed): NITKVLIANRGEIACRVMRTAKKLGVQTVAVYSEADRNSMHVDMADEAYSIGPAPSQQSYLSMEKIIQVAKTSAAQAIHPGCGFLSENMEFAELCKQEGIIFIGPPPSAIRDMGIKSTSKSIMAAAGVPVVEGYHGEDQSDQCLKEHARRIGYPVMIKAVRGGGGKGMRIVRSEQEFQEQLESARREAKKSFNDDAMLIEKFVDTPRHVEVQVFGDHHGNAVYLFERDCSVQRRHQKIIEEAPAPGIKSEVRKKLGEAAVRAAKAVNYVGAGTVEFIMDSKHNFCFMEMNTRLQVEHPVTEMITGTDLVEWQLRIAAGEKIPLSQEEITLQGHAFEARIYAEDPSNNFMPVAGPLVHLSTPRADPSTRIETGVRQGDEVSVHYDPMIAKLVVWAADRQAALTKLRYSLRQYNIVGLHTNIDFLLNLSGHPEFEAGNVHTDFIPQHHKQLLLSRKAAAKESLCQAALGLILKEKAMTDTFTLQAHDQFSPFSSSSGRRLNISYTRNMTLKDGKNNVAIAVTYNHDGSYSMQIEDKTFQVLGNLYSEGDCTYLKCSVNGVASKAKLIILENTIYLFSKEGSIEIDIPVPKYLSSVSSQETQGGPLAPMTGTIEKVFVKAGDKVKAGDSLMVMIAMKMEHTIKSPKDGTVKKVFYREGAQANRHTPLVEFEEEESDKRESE
T12 sequence (Q9HCC0 23-563 partner): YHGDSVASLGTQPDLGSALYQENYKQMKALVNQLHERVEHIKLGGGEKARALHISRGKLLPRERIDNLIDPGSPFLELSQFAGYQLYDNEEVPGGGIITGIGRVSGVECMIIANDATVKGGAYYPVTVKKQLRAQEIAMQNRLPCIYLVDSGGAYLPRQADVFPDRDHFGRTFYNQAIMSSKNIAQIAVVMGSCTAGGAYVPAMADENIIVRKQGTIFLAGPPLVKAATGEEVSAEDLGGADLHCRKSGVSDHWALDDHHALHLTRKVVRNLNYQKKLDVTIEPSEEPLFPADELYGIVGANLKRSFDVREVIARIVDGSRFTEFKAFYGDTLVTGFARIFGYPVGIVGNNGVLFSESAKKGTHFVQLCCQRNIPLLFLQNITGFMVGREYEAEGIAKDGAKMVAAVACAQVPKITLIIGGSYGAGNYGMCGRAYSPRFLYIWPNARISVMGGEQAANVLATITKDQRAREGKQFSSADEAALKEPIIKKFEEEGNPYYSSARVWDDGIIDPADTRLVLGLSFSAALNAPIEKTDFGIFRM

[14] = target: T13, ME2 (Homo sapiens, UniProt P23368)
T13 construct: to get the native cell lysate; endogenous in cells; host or cells: A375

[15] = target: T14, MTHFD1 (Homo sapiens, UniProt P11586); details: MTHFD1, SEQ ID NO: 125, ATP BS
T14 construct: to get the native cell lysate; endogenous in cells; host or cells: A375

[16] = target: T15, MYO1E (Homo sapiens, UniProt Q12965); details: SEQ ID NO: 128, ATP BS
T15 construct: to get the native cell lysate; endogenous in cells; host or cells: A375

[17] = target: T16, NADSYN1 (Homo sapiens, UniProt Q6IA69); details: NADSYN1, SEQ ID NO: 130, ATP BS
T16 construct: to get the native cell lysate; endogenous in cells; host or cells: A375

[18] = target: T17, NT5E (Homo sapiens, UniProt P21589); details: SEQ ID NO: 140, ATP BS
T17 construct: to get the native cell lysate; endogenous in cells; host or cells: A375

[19] = target: T18, PFKFB2 (Homo sapiens, UniProt O60825); details: PFKFB2, SEQ ID NO: 158, ATP BS
T18 construct: to get the native cell lysate; endogenous in cells; host or cells: A375 cell lysate

[20] = system: PRPS1L1, PRPS2; details: PRPS1L1, PRPS2, SEQ ID NO: 172, ATP BS
[21] = target: PSMD9 (Homo sapiens, UniProt O00233); details: PSMD9, SEQ ID NO: 179, ATP BS; read-out: Inhibition (%) by 1 μM Z36-MP5
[22] = target: T19, RFC2 (Homo sapiens, UniProt P35250); details: RFC2, SEQ ID NO: 184, ATP BS
T19 construct: to get the native cell lysate; endogenous in cells; host or cells: A375 cell lysate

[23] = target: T20, RFC5 (Homo sapiens, UniProt P40937); details: RFC5, SEQ ID NO: 186, ATP BS
T20 construct: to get the native cell lysate; endogenous in cells; host or cells: A375 cell lysate

[24] = target: T21, SUCLA2 (Homo sapiens, UniProt Q9P2R7)
T21 construct: to get the native cell lysate; endogenous in cells; host or cells: A375 cell lysate
T21 sequence (Q9P2R7 53-463): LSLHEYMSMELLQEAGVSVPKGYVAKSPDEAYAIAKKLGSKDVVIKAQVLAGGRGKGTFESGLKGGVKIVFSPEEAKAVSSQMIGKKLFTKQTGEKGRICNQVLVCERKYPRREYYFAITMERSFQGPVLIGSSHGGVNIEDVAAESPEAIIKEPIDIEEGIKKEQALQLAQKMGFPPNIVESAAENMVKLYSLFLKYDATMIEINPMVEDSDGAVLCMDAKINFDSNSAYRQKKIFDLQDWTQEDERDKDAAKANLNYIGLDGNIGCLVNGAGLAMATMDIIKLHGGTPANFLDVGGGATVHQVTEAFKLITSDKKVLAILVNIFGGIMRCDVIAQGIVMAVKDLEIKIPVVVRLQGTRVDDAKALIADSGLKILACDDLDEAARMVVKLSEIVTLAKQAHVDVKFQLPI
T21 sequence (P53597 41-346 partner): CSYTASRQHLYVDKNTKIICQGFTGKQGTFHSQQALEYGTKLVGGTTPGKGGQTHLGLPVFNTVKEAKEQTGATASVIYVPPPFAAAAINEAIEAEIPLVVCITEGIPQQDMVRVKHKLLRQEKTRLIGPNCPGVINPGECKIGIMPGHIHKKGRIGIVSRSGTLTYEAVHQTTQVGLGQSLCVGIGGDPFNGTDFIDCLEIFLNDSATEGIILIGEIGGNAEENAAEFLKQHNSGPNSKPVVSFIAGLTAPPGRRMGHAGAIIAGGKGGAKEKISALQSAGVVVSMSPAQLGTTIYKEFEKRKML

[25] = system: TOP2A, TOP2B; details: SEQ ID NO: 202, ATP BS
[26] = target: T22, TOR1B (Homo sapiens, UniProt O14657); details: SEQ ID NO: 204, ATP BS
T22 construct: to get the native cell lysate; endogenous in cells; host or cells: A375 cell lysate

[27] = target: T23, UBA5 (Homo sapiens, UniProt Q9GZZ9); details: UBA5, SEQ ID NO: 221, ATP BS
T23 construct: to get the native cell lysate; endogenous in cells; host or cells: A375 cell lysate

[28] = target: T24, VCP (Homo sapiens, UniProt P55072)
T24 construct: to get the native cell lysate; endogenous in cells; host or cells: A375 cell lysate
T24 sequence (P55072 2-806 limits assumed): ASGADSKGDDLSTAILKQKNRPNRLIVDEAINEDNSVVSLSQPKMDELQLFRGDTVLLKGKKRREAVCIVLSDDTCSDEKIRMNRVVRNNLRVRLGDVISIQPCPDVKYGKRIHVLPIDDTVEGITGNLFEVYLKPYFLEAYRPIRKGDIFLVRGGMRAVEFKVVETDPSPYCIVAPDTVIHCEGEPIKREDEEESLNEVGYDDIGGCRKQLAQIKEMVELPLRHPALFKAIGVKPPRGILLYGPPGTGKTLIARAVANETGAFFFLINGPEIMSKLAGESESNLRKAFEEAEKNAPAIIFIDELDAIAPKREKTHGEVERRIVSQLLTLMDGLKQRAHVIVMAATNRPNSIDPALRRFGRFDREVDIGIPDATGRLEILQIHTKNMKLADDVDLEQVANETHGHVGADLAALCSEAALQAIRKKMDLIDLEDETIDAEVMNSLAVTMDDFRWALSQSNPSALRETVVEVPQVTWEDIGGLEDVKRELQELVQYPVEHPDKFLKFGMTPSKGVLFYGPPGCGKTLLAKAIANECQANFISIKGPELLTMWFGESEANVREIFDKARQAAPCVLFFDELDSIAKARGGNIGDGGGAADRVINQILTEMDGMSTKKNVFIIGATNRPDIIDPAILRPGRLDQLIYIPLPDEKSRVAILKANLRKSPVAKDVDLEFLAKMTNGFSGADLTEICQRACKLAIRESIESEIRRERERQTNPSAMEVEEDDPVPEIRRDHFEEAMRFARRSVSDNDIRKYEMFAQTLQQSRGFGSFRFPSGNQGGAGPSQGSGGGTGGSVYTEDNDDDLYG

[29] = target: T25, XRCC3 (Homo sapiens, UniProt O43542); details: XRCC3, SEQ ID NO: 230, ATP BS
T25 construct: to get the native cell lysate; endogenous in cells; host or cells: A375 cell lysate

Cn1c(=O)[nH]c2ccc(-c3cccc(C(=O)NC4CCn5ccnc5C4)c3)cc21 (stereo not drawn) [Z36-MP5, 3-(3-methyl-2-oxo-2,3-dihydro-1H-benzo[d]imidazol-5-yl)-N-(5,6,7,8-tetrahydroimidazo[1,2-a]pyridin-7-yl)benzamide]
Inhibition (%) by 1 μM Z36-MP5 [1]: 0.34%
Inhibition (%) by 1 μM Z36-MP5 ([2]; ABCC1, SEQ ID NO: 5, ATP BS): −0.23%
Inhibition (%) by 1 μM Z36-MP5 ([2]; ABCC1, SEQ ID NO: 6, ATP BS): −7.84%
Inhibition (%) by 1 μM Z36-MP5 ([3]; ABCC4, SEQ ID NO: 11, ATP BS): 1.76%
Inhibition (%) by 1 μM Z36-MP5 ([3]; ABCC4, SEQ ID NO: 12, ATP BS): 8.93%
Inhibition (%) by 1 μM Z36-MP5 [4]: 3.07%
Inhibition (%) by 1 μM Z36-MP5 [5]: −1.87%
Inhibition (%) by 1 μM Z36-MP5 [6]: −1.13%
Inhibition (%) by 1 μM Z36-MP5 ([7]; ATG7, SEQ ID NO: 45, ATP BS): −0.18%
Inhibition (%) by 1 μM Z36-MP5 ([7]; ATG7, SEQ ID NO: 46, ATP BS): −6.20%
Inhibition (%) by 1 μM Z36-MP5 [8]: 0.44%
Inhibition (%) by 1 μM Z36-MP5 ([9]; SEQ ID NO: 62, ATP BS): −3.39%
Inhibition (%) by 1 μM Z36-MP5 ([9]; SEQ ID NO: 63, ATP BS): 23.55%
Inhibition (%) by 1 μM Z36-MP5 [10]: 3.05%
Inhibition (%) by 1 μM Z36-MP5 [11]: −8.90%
Inhibition (%) by 1 μM Z36-MP5 [12]: −5.50%
Inhibition (%) by 1 μM Z36-MP5 ([13]; MCCC1, SEQ ID NO: 116, ATP BS): −6.46%
Inhibition (%) by 1 μM Z36-MP5 ([13]; MCCC1, SEQ ID NO: 117, ATP BS): 4.45%
Inhibition (%) by 1 μM Z36-MP5 ([14]; ME2, SEQ ID NO: 122, ATP BS): −6.47%
Inhibition (%) by 1 μM Z36-MP5 ([14]; ME2, SEQ ID NO: 123, ATP BS): −16.71%
Inhibition (%) by 1 μM Z36-MP5 [15]: −6.16%
Inhibition (%) by 1 μM Z36-MP5 [16]: 4.66%
Inhibition (%) by 1 μM Z36-MP5 [17]: −2.19%
Inhibition (%) by 1 μM Z36-MP5 [18]: −9.95%
Inhibition (%) by 1 μM Z36-MP5 [19]: 14.74%
Inhibition (%) by 1 μM Z36-MP5 [20]: −13.63%
inhibition at 1 µM [21]: 2.13%
Inhibition (%) by 1 μM Z36-MP5 [22]: 1.52%
Inhibition (%) by 1 μM Z36-MP5 [23]: 2.11%
Inhibition (%) by 1 μM Z36-MP5 ([24]; SUCLA2, SEQ ID NO: 198, ATP BS): −0.65%
Inhibition (%) by 1 μM Z36-MP5 ([24]; SUCLA2, SEQ ID NO: 199, ATP BS): 9.97%
Inhibition (%) by 1 μM Z36-MP5 [25]: 11.93%
Inhibition (%) by 1 μM Z36-MP5 [26]: 2.00%
Inhibition (%) by 1 μM Z36-MP5 [27]: −12.85%
Inhibition (%) by 1 μM Z36-MP5 ([28]; SEQ ID NO: 225, ATP BS): −8.02%
Inhibition (%) by 1 μM Z36-MP5 ([28]; SEQ ID NO: 226, ATP BS): −2.36%
Inhibition (%) by 1 μM Z36-MP5 ([28]; SEQ ID NO: 227, ATP BS): −7.20%
Inhibition (%) by 1 μM Z36-MP5 ([28]; SEQ ID NO: 228, ATP BS): 7.80%
Inhibition (%) by 1 μM Z36-MP5 [29]: −4.81%
